Holding throughout (format): cell-based
The subject of series [1] is human hepatoma cell line (HepG2). The settings on record: MTT, 24 h incubation. The protocol: For in vitro cytotoxicity experiments, the cell monolayer was trypsinized, washed with culture medium, distributed in a flat-bottomed 96-well plate (5 × 10^3 cells/well), and finally incubated for 18 h at 37 °C for cell adherence.
For cytotoxicity testing, we used the (3-(4,5-dimethylthiazol-2-yl)-2,5-diphenyltetrazolium bromide (MTT) assay, performed as described in the literature. The HepG2 cell line was incubated with 20 µL of the compounds in different concentrations (200–25 µg/mL) for 24 h in an atmosphere of 5% CO2 at 37 °C.
For the MTT assay, which evaluates mitochondrial viability, 20 µL of MTT solution (5 mg/mL) was added, and the plates were incubated for an additional 3 h. After incubation, the supernatant was carefully removed from the wells, followed by addition of 100 µL DMSO with thorough mixing. Optical densities at 570 and 630 nm (background) were determined by an ELISA reader.
Cell viability was expressed as the percentage of control absorbance obtained in untreated cells after subtracting the absorbance from appropriate background. Lastly, the minimum lethal dose for 50% of the cells (MLD50) was determined as previously described in the literature. The ratio between MLD50 and drug activity (IC50) in vitro was used to determine the selectivity index (SI).

Series [2] concerns Plasmodium falciparum chloroquine-resistant W2 clone. Briefly: [3H]-hypoxanthine incorporation assay on P. falciparum-infected erythrocytes. The conditions noted are these: Erythrocyte, W2 clone, 1% parasitemia, 1% hematocrit, read-out: IC50 Plasmodium Falciparum Hypoxanthine. Here is the method:
(§1) Briefly, the parasites were kept as described at 37 °C in human erythrocytes (A^+) in complete medium (RPMI 1640 supplemented with 10% human sera blood group A^+, 2% glutamine, and 7.5% NaHCO3) either in Petri dishes in a candle jar or in 25-cm culture flasks in an environment containing a gas mixture atmosphere (3% O2, 5% CO2 and 91% N2). Before testing, the ring-stage parasites were synchronized by sorbitol; the suspension was adjusted for parasitemia and hematocrit as described below for each test used.
(§2) The effects of compounds against the W2 P. falciparum blood cultures were evaluated through incorporation of ^3H hypoxanthine (Perkin Elmer, Waltham, MA, USA) by the parasites. Alternatively, compound effects were also examined using monoclonal antibodies to a commercially available parasite histidine and alanine-rich protein (HRP2) (MPFM ICLLAB-55A®, MPFG55P ICLLAB®, Immunology Consultants Laboratory Inc. (ICL), Portland, OR, USA), as described previously. The [3H]-hypoxanthine assay was performed with 1% of parasitemia and 1% of hematocrit, and the level of isotope incorporation was read in a beta-counter (Perkin Elmer). The anti-HRP2 test was performed with 0.05% parasitemia and 1.5% hematocrit, and the quantification of protein was determined using a specific read at 450 nm in a spectrophotometer (SpectraMax340PC^384, Molecular Devices, Sunnyvale, CA, USA). Drug activities were expressed by the half-maximal inhibitory dose (IC50) compared to the drug-free controls and estimated using the curve-fitting software Origin 8.0 (OriginLab Corporation, Northampton, MA, USA).

Series [3] has the same test system. Briefly: anti-HRP2 test on P. falciparum-infected erythrocytes. The settings on record: W2 clone; for IC50: Plasmodium falciparum, Erythrocyte, 0.05% parasitemia, 1.5% hematocrit, read-out: IC50 Plasmodium Falciparum Anti-HRP2; for activity class against P. falciparum: class by IC50. Here is the method:
as §1, §2

Each structure is given as a SMILES string.

`COc1cc(Nc2cc(C)nc3nc(C)nn23)cc(OC)c1` [Compound 14, 7-(3,5-Dimethoxyphenylamine)-2,5-dimethyl[1,2,4]triazolo[1,5-a]pyrimidine]: the “MDL50 HepG2” value in series [1] worked out at 515 µM. Moreover, the IC50 in series [2] was found to be 15.1 ± 10 µM; in series [3], 3.84 ± 0.4 µM.
Take `Cc1cc(Nc2nc(C(F)(F)F)n[nH]2)n2nc(C(F)(F)F)nc2n1` [Compound 23, 5-Methyl-2-(trifluoromethyl)-7-(5-(trifluoromethyl)-3-amine-4H-1,2,4-triazolyl)[1,2,4]triazolo[1,5-a]pyrimidine]: the “MDL50 HepG2” value in series [1] is recorded as less than 71 µM. The IC50 in series [2] was 31.2 ± 17 µM. Also, in series [3], the concentration for half-maximal inhibition (IC50) stood at 36.9 ± 11.4 µM and the “activity class against P. falciparum” value is “Inactive”.
Regarding `COc1ccc(Nc2cc(C)nc3nc(C(F)(F)F)nn23)cc1` [Compound 11, 7-(4-Methoxyphenylamine)-5-methyl-2-(trifluoromethyl)[1,2,4]triazolo[1,5-a]pyrimidine], the “MDL50 HepG2” value in series [1] is greater than 619 µM. Besides, the results for the IC50 in series [2] and in series [3] were 1.5 ± 1.2 µM and 0.4 ± 0.09 µM, respectively.
On to `Cc1cc(Nc2cc(Cl)cc(Cl)c2)n2nc(C)nc2n1` [Compound 15, 7-(3,5-Dichlorophenylamine)-2,5-dimethyl[1,2,4]triazolo[1,5-a]pyrimidine], for which the “MDL50 HepG2” value in series [1] is reported as 415 µM. In addition, the IC50 in series [2] is 149 µM. Moreover, in series [3], the IC50 was greater than 162 µM and the “activity class against P. falciparum” value is given as “Inactive”.
Turning to `Cc1cc(N2CCCC2)n2nc(C(F)(F)F)nc2n1` [Compound 21, 5-Methyl-7-(pyrrolidin-1-yl)-2-(trifluoromethyl)[1,2,4]triazolo[1,5-a]pyrimidine], the “MDL50 HepG2” value in series [1] is reported as greater than 738 µM. Further, in series [2], the IC50 is greater than 184 µM. In series [3], the IC50 is greater than 184 µM and the “activity class against P. falciparum” value was “Inactive”.

Source of the values: paper PMC6268855, “New Trifluoromethyl Triazolopyrimidines as Anti-Plasmodiumfalciparum Agents” (Molecules, 2012).
